Assay results from ChEMBL document CHEMBL1201862, “PubChem BioAssay data set” (2004).
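Values below derive from 48-hour exposures of cells grown in 96-well plates, with endpoints linearly interpolated between the two concentrations bracketing the appropriate inhibition level. Here, GI50 denotes the concentration required for 50% inhibition of growth.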 The source made the active and inactive calls. No stated cut-off is given here; in the data, active = GI50 up to about 1.1 µM and inactive = higher.

How the values were obtained:
Experiment in all cases: inhibition of tumour cell growth, NCI panel, 48 h
NCI-H522 = tested on: NCI-H522
SF-295 = tested on: SF-295
786-0 = tested on: 786-0
UACC-257 = tested on: UACC-257
SN12C = tested on: SN12C
HOP-62 = tested on: HOP-62
OVCAR-4 = tested on: OVCAR-4
SR = tested on: SR
HCT-15 = tested on: HCT-15
LOX IMVI = tested on: LOX IMVI
OVCAR-8 = tested on: OVCAR-8
ACHN = tested on: ACHN
HOP-92 = tested on: HOP-92
Malme-3M = tested on: Malme-3M
SW-620 = tested on: SW-620
A498 = tested on: A498
A549 = tested on: A549
SNB-75 = tested on: SNB-75
UACC-62 = tested on: UACC-62

With `CC1=C/C(=C2/N=C(N(C)C)SS2)C(C)=N1.[O-][Cl+3]([O-])([O-])O` the GI50 (NCI-H522) was 4.33 µM (inactive), the GI50 (SF-295) was > 100 µM (inactive) and the GI50 (786-0) was > 100 µM (inactive). For the same molecule, the GI50 (UACC-257) was > 100 µM (inactive), the GI50 (SN12C) was > 100 µM (inactive) and the GI50 (HOP-62) was > 100 µM (inactive). The GI50 (OVCAR-4) was 71.3 µM (inactive), the GI50 (SR) was > 100 µM (inactive) and the GI50 (HCT-15) was over 100 µM. For the same molecule, the GI50 (LOX IMVI) was 37.3 µM (inactive), the GI50 (OVCAR-8) was > 100 µM (inactive) and the GI50 (ACHN) was > 100 µM (inactive). For the same molecule, the GI50 (HOP-92) was > 100 µM (inactive), the GI50 (Malme-3M) was 21.8 µM (inactive) and the GI50 (SW-620) was > 100 µM (inactive). The GI50 (A498) was > 100 µM (inactive), the GI50 (A549) was > 100 µM (inactive) and the GI50 (SNB-75) was > 100 µM (inactive).
`CCOc1ccccc1NC(=O)CC(C(=O)OC)C(=O)C(=O)OC` (stereo not given) was tested, and the GI50 (NCI-H522) was > 100 µM (inactive), the GI50 (SF-295) was > 100 µM (inactive) and the GI50 (786-0) was > 100 µM (inactive). For the same molecule, the GI50 (UACC-257) was > 100 µM (inactive), the GI50 (SN12C) was > 100 µM (inactive) and the GI50 (HOP-62) was > 100 µM (inactive). The GI50 (OVCAR-4) was > 100 µM (inactive), the GI50 (SR) was > 100 µM (inactive) and the GI50 (HCT-15) was over 100 µM. For the same molecule, the GI50 (UACC-62) was > 100 µM (inactive), the GI50 (LOX IMVI) was > 100 µM (inactive) and the GI50 (OVCAR-8) was > 100 µM (inactive). For the same molecule, the GI50 (ACHN) was > 100 µM (inactive), the GI50 (HOP-92) was > 100 µM (inactive) and the GI50 (Malme-3M) was > 100 µM (inactive). For the same molecule, the GI50 (SW-620) was > 100 µM (inactive), the GI50 (A498) was > 100 µM (inactive) and the GI50 (A549) was > 100 µM (inactive).
For `CCN(CC)CCC(=O)/C=C/c1ccc(C)cc1`, the GI50 (SF-295) was 18.1 µM (inactive), the GI50 (786-0) was 11.9 µM (inactive) and the GI50 (UACC-257) was 13.9 µM (inactive). For the same molecule, the GI50 (SN12C) was 12 µM (inactive), the GI50 (HOP-62) was 25.7 µM (inactive) and the GI50 (OVCAR-4) was 18.4 µM (inactive). For the same molecule, the GI50 (SR) was 6.78 µM (inactive), the GI50 (HCT-15) was 12.5 µM and the GI50 (UACC-62) was 16.6 µM (inactive). The GI50 (LOX IMVI) was 4.53 µM (inactive), the GI50 (OVCAR-8) was 13.2 µM (inactive) and the GI50 (ACHN) was 14.4 µM (inactive). For the same molecule, the GI50 (HOP-92) was 19.2 µM (inactive), the GI50 (Malme-3M) was 19.3 µM (inactive) and the GI50 (SW-620) was 4.69 µM (inactive). For the same molecule, the GI50 (A498) was 11.2 µM (inactive), the GI50 (A549) was 18.8 µM (inactive) and the GI50 (SNB-75) was 15.6 µM (inactive).
In the case of `C=CCOCCCC(=O)C(=[N+]=[N-])C(=O)OC`, the GI50 (NCI-H522) is reported as > 100 µM (inactive), the GI50 (SF-295) is reported as > 100 µM (inactive) and the GI50 (786-0) is reported as > 100 µM (inactive). The GI50 (UACC-257) was > 100 µM (inactive), the GI50 (SN12C) was > 100 µM (inactive) and the GI50 (OVCAR-4) was > 100 µM (inactive). The GI50 (SR) was > 100 µM (inactive), the GI50 (HCT-15) was over 100 µM and the GI50 (UACC-62) was > 100 µM (inactive). The GI50 (LOX IMVI) was > 100 µM (inactive), the GI50 (OVCAR-8) was > 100 µM (inactive) and the GI50 (ACHN) was > 100 µM (inactive). For the same molecule, the GI50 (HOP-92) was > 100 µM (inactive), the GI50 (Malme-3M) was > 100 µM (inactive) and the GI50 (SW-620) was > 100 µM (inactive). The GI50 (A498) was > 100 µM (inactive), the GI50 (A549) was > 100 µM (inactive) and the GI50 (SNB-75) was > 100 µM (inactive).
In the case of `CCCC(=O)c1c(NOC2OCC(OC(C)=O)C(OC(C)=O)C2OC(C)=O)nc(OC)n(C)c1=O` (stereo not given), the GI50 (SF-295) is reported as > 100 µM (inactive), the GI50 (786-0) is reported as > 100 µM (inactive) and the GI50 (UACC-257) is reported as > 100 µM (inactive). For the same molecule, the GI50 (SN12C) was > 100 µM (inactive), the GI50 (HOP-62) was > 100 µM (inactive) and the GI50 (OVCAR-4) was > 100 µM (inactive). For the same molecule, the GI50 (SR) was > 100 µM (inactive), the GI50 (HCT-15) was over 100 µM and the GI50 (UACC-62) was > 100 µM (inactive). The GI50 (LOX IMVI) was > 100 µM (inactive), the GI50 (OVCAR-8) was > 100 µM (inactive) and the GI50 (ACHN) was > 100 µM (inactive). The GI50 (HOP-92) was > 100 µM (inactive), the GI50 (Malme-3M) was > 100 µM (inactive) and the GI50 (SW-620) was > 100 µM (inactive). For the same molecule, the GI50 (A498) was > 100 µM (inactive), the GI50 (A549) was > 100 µM (inactive) and the GI50 (SNB-75) was > 100 µM (inactive).
With `N#Cc1nc(Cc2cccs2)oc1N` the GI50 (786-0) was > 100 µM (inactive), the GI50 (UACC-257) was > 100 µM (inactive) and the GI50 (SN12C) was > 100 µM (inactive). For the same molecule, the GI50 (HOP-62) was > 100 µM (inactive), the GI50 (SR) was > 100 µM (inactive) and the GI50 (HCT-15) was over 100 µM. The GI50 (UACC-62) was > 100 µM (inactive), the GI50 (LOX IMVI) was > 100 µM (inactive) and the GI50 (OVCAR-8) was > 100 µM (inactive). For the same molecule, the GI50 (ACHN) was > 100 µM (inactive), the GI50 (HOP-92) was > 100 µM (inactive) and the GI50 (SW-620) was > 100 µM (inactive). For the same molecule, the GI50 (A498) was > 100 µM (inactive), the GI50 (A549) was > 100 µM (inactive) and the GI50 (SNB-75) was > 100 µM (inactive).
